From patent US4740233A, “Substituted 1,2,4-triazolo[1,5-a]-pyrimidine-2-sulfonamides and compositions and methods of controlling undesired vegetation and suppressing the nitrification of ammonium nitrogen in soil” (The Dow Chemical Company, priority 1986, dated 1988)

How the values were obtained:
sugar beet = test: Preemergent control of plant species; format: in vivo, Beta saccharifera; settings: Beta vulgaris, pre-emergence, 336 h; 0.25 lb/acre; read-out: percent preemergent control
Summary of the method: (§1)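 Seeds sown in agricultural soil in greenhouse beds, then aqueous-emulsion compositions applied uniformly to the bed surface at listed rates. Beds kept two weeks under greenhouse growth conditions with watering. Control expressed as growth reduction versus water-treated beds of the same species.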

sprangletop = test: Control of aquatic plant species (paddy water); format: in vivo, Leptochloa filiformis; settings: Leptochloa filiformis, 216 h, nine days, read-out: Percent control; for pest or weed control at 250 g/ha: 0.25 Kg/Ha
Summary of the method: (§2)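 Plants transplanted at 1-2 inch stage into soil, flooded about 1 inch deep; acetone concentrate of compound injected into paddy water at varied volumes to set concentration. Percent control scored nine days after application.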

jimsonweed = test: Preemergent control of plant species; format: in vivo, Datura stramonium; settings: Datura stramonium, pre-emergence, 336 h; 0.25 lb/acre; read-out: percent preemergent control
Summary of the method: as §1

cotton = test: Preemergent control of plant species; format: in vivo, Gossypium spp.; settings: Gossypium hirsutum, pre-emergence, 336 h; 0.25 lb/acre; read-out: percent preemergent control
Summary of the method: as §1

pigweed = test: Preemergent control of plant species; format: in vivo, Amaranthus spp.; settings: Amaranthus retroflexus, pre-emergence, 336 h; 0.25 lb/acre; read-out: percent preemergent control
Method: (§3) The seeds of various species of plants were planted in beds of good agricultural soil in a greenhouse. A number of compositions of the present invention, generally in the nature of an aqueous emulsion, were applied at rates listed in the table so as to deposit a predetermined amount of active ingredients uniformly throughout the surface of the bed. Another seed bed was treated only with water to serve as a control. After treatment the seed beds were maintained for two weeks under greenhouse conditions conducive for good plant growth and watered as necessary. Control refers to the reduction in growth compared to the observed results of the same untreated species.

sorghum = test: Preemergent control of plant species; format: in vivo, Sorghum vulgare; settings: Sorghum, pre-emergence, 336 h; 0.25 lb/acre; read-out: percent preemergent control
Summary of the method: as §1

yellow nutsedge [1] = test: Control of aquatic plant species (paddy water); format: in vivo, Cyperus esculentus; settings: Cyperus, 216 h, nine days, read-out: Percent control; for pest or weed control at 250 g/ha: 0.25 Kg/Ha
Summary of the method: as §2

[2] = test system: nitrification of ammonium nitrogen; test: Suppression of nitrification of ammonium nitrogen in soil; settings: 27° C.
Summary of the method: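 Soil (20 g) moistened to its 1/3 bar tension value, mixed with test chemical and incubated sealed for two weeks at 27° C. Nitrate extracted with ammonium sulfate solution and measured by nitrate-specific ion electrode; value given as % NH4-N remaining.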

johnson grass = test: Preemergent control of plant species; format: in vivo, Sorghum halepense; settings: Sorghum halepense, pre-emergence, 336 h; 0.25 lb/acre; read-out: percent preemergent control
Summary of the method: as §1

yellow nutsedge [3] = test: Preemergent control of plant species; format: in vivo, Cyperus esculentus; settings: Cyperus, pre-emergence, 336 h; 0.25 lb/acre; read-out: percent preemergent control
Summary of the method: as §1

corn = test: Preemergent control of plant species; format: in vivo, Zea mays; settings: Zea mays, pre-emergence, 336 h; 0.25 lb/acre; read-out: percent preemergent control
Summary of the method: as §1

crabgrass = test: Preemergent control of plant species; format: in vivo, Digitaria spp.; settings: Digitaria sanguinalis, pre-emergence, 336 h; 0.25 lb/acre; read-out: percent preemergent control
Method: as §3

rape = test: Preemergent control of plant species; format: in vivo, Brassica napus; settings: Brassica napus, pre-emergence, 336 h; 0.25 lb/acre; read-out: percent preemergent control
Summary of the method: as §1

rice [4] = test: Preemergent control of plant species; format: in vivo, Oryza sativa; settings: Oryza sativa, pre-emergence, 336 h; 0.25 lb/acre; read-out: percent preemergent control
Summary of the method: as §1

annual morning glory = test: Preemergent control of plant species; format: in vivo, Ipomoea spp.; settings: Ipomoea, pre-emergence, 336 h; 0.25 lb/acre; read-out: percent preemergent control
Summary of the method: as §1

barnyardgrass [5] = test: Preemergent control of plant species; format: in vivo, Echinochloa crusgalli; settings: Echinochloa crus-galli, pre-emergence, 336 h; 0.25 lb/acre; read-out: percent preemergent control
Summary of the method: as §1

velvetleaf = test: Preemergent control of plant species; format: in vivo, Abutilon theophrasti; settings: Abutilon theophrasti, pre-emergence, 336 h; 0.25 lb/acre; read-out: percent preemergent control
Summary of the method: as §1

barnyardgrass [6] = test: Control of aquatic plant species (paddy water); format: in vivo, Echinochloa crusgalli; settings: Echinochloa crus-galli, 216 h, nine days, read-out: Percent control; for pest or weed control at 250 g/ha: 0.25 Kg/Ha
Method: In testing for such utility, the plant species to be tested were transplanted into 16 oz. containers into about 2 inches of soil when they were in the 1-2 inch stage and then flooded to a depth of about 1 inch. An acetone concentrate of the chemical to be tested was then injected into the paddy water, the volume injected being varied as desired to provide the desired concentration. Percent control was evaluated nine days after application.

yellow foxtail = test: Preemergent control of plant species; format: in vivo, Setaria lutescens; settings: Setaria, pre-emergence, 336 h; 0.25 lb/acre; read-out: percent preemergent control
Summary of the method: as §1

wheat = test: Preemergent control of plant species; format: in vivo, Triticum aestivum; settings: Triticum aestivum, pre-emergence, 336 h; 0.25 lb/acre; read-out: percent preemergent control
Summary of the method: as §1

soybean = test: Preemergent control of plant species; format: in vivo, Glycine max.; settings: Glycine max, pre-emergence, 336 h; 0.25 lb/acre; read-out: percent preemergent control
Summary of the method: as §1

rice [7] = test: Control of aquatic plant species (paddy water); format: in vivo, Oryza sativa; settings: Oryza sativa, 216 h, nine days, read-out: Percent control; for pest or weed control at 250 g/ha: 0.25 Kg/Ha
Summary of the method: as §2

wild oats = test: Preemergent control of plant species; format: in vivo; settings: Avena fatua, pre-emergence, 336 h; 0.25 lb/acre; read-out: percent preemergent control
Summary of the method: as §1

Row | Compound | plant injury at 280.212 g/ha (sugar beet) | pest or weed control at 250 g/ha (sprangletop) | pest or weed control at 280.212 g/ha (jimsonweed) | plant injury at 280.212 g/ha (cotton) | pest or weed control at 280.212 g/ha (pigweed) | plant injury at 280.212 g/ha (sorghum) | % NH4-N Remaining After 2 Weeks Incubation ([2]; 1 ppm) | pest or weed control at 280.212 g/ha (johnson grass) | pest or weed control at 280.212 g/ha (yellow nutsedge [3]) | plant injury at 280.212 g/ha (corn) | pest or weed control at 280.212 g/ha (crabgrass) | plant injury at 280.212 g/ha (rape) | plant injury at 280.212 g/ha (rice [4]) | pest or weed control at 280.212 g/ha (annual morning glory) | pest or weed control at 280.212 g/ha (barnyardgrass [5]) | pest or weed control at 280.212 g/ha (velvetleaf) | pest or weed control at 280.212 g/ha (yellow foxtail) | plant injury at 280.212 g/ha (wheat) | plant injury at 280.212 g/ha (soybean) | pest or weed control at 280.212 g/ha (wild oats) | also measured
1 | Cc1cc(C)n2nc(S(=O)(=O)Nc3ccccc3C(F)(F)F)nc2n1 [Compound 13, 5,7-Dimethyl-N-(2-trifluoromethylphenyl)-1,2,4-triazolo[1,5-a]pyrimidine-2-sulfonamide] | 98% | 10% | 70% | 95% | 95% | 98% | 89% | 95% | 98% | 80% | 80% | 98% | 95% | 90% | 95% | 95% | 90% | 20% | 95% | 10% | pest or weed control at 250 g/ha (yellow nutsedge [1]): 93%; % NH4-N Remaining After 2 Weeks Incubation ([2]; 0.06 ppm): 73%; % NH4-N Remaining After 2 Weeks Incubation ([2]; 0.125 ppm): 78%; % NH4-N Remaining After 2 Weeks Incubation ([2]; 0.25 ppm): 81%; % NH4-N Remaining After 2 Weeks Incubation ([2]; 0.5 ppm): 85%; pest or weed control at 250 g/ha (barnyardgrass [6]): 93%; pest or weed control at 250 g/ha (rice [7]): 97%
2 | Cc1cc(C)n2nc(S(=O)(=O)Nc3c(Cl)cccc3Cl)nc2n1 [Compound 22, 5,7-Dimethyl-N-(2,6-dichlorophenyl)-1,2,4-triazolo[1,5-a]pyrimidine-2-sulfonamide] | 98% | 30% | 100% | 95% | 100% | 95% | 86% | 98% | 98% | 50% | 95% | 100% | 90% | 70% | 95% | 98% | 98% | 50% | 95% | 90% | pest or weed control at 250 g/ha (yellow nutsedge [1]): 97%; % NH4-N Remaining After 2 Weeks Incubation ([2]; 0.06 ppm): 69%; % NH4-N Remaining After 2 Weeks Incubation ([2]; 0.125 ppm): 77%; % NH4-N Remaining After 2 Weeks Incubation ([2]; 0.25 ppm): 82%; % NH4-N Remaining After 2 Weeks Incubation ([2]; 0.5 ppm): 86%; pest or weed control at 250 g/ha (barnyardgrass [6]): 97%; pest or weed control at 250 g/ha (rice [7]): 97%
3 | Cc1cc(C)n2nc(S(=O)(=O)Nc3c(F)cccc3F)nc2n1 [Compound 25, 5,7-Dimethyl-N-(2,6-difluorophenyl)-1,2,4-triazolo[1,5-a]pyrimidine-2-sulfonamide] | 100% | 0% | 98% | 98% | 100% |  | 79% | 98% | 95% | 100% | 100% | 100% | 100% | 80% | 98% | 98% | 100% | 70% | 98% | 95% | pest or weed control at 250 g/ha (yellow nutsedge [1]): 90%; % NH4-N Remaining After 2 Weeks Incubation ([2]; 0.06 ppm): 31%; % NH4-N Remaining After 2 Weeks Incubation ([2]; 0.125 ppm): 46%; % NH4-N Remaining After 2 Weeks Incubation ([2]; 0.25 ppm): 48%; % NH4-N Remaining After 2 Weeks Incubation ([2]; 0.5 ppm): 73%; pest or weed control at 250 g/ha (barnyardgrass [6]): 95%; pest or weed control at 250 g/ha (rice [7]): 97%
4 | Cc1cc(C)n2nc(S(=O)(=O)Nc3c(C)cccc3Cl)nc2n1 [Compound 31] | 100% |  | 65% | 80% | 95% | 50% | 86% | 100% |  | 95% | 100% | 98% | 98% | 100% | 100% | 95% | 100% | 98% | 95% | 98% | pest or weed control at 125 g/ha (sprangletop; 0.125 Kg/Ha): 45%; pest or weed control at 125 g/ha (yellow nutsedge [1]; 0.125 Kg/Ha): 97%; % NH4-N Remaining After 2 Weeks Incubation ([2]; 0.01 ppm): 34%; % NH4-N Remaining After 2 Weeks Incubation ([2]; 0.1 ppm): 66%; % NH4-N Remaining After 2 Weeks Incubation ([2]; 10 ppm): 91%; pest or weed control at 125 g/ha (barnyardgrass [6]; 0.125 Kg/Ha): 97%; pest or weed control at 125 g/ha (rice [7]; 0.125 Kg/Ha): 90%
5 | COc1cc(C)n2nc(S(=O)(=O)Nc3c(Cl)cccc3Cl)nc2n1 [Compound 178] | 95% |  | 0% | 65% | 60% | 0% | 43% | 0% | 0% | 0% | 0% | 80% | 0% | 10% | 25% | 40% | 0% |  | 0% |  | pest or weed control at 2000 g/ha (sprangletop; 2.0 Kg/Ha): 0%; pest or weed control at 2000 g/ha (yellow nutsedge [1]; 2.0 Kg/Ha): 90%; % NH4-N Remaining After 2 Weeks Incubation ([2]; 0.1 ppm): 0%; % NH4-N Remaining After 2 Weeks Incubation ([2]; 10 ppm): 91%; pest or weed control at 2000 g/ha (barnyardgrass [6]; 2.0 Kg/Ha): 20%; pest or weed control at 2000 g/ha (rice [7]; 2.0 Kg/Ha): 50%
